Assay results taken from PMC6394892, “The identification and use of robust transaminases from a domestic drain metagenome” (Green Chemistry, 2018).
Values belong to the compound of their own block, whether it stands above or below them.

Experiments:
[1] = tested on: T1, pQR2189; assay: continuous UV absorbance at […] nm, Michaelis-Menten fit; assay type: biochemical, uncultured bacterium (household drain metagenome); conditions: apparent, PLP 0.1 mM, KPi pH 7.5 50 mM, 1% DMSO, 30 °C
T1 construct: N- and C-terminal His6 tags, pET-28a(+) NdeI/XhoI, expressed in E. coli BL21(DE3)

[2] = tested on: T1, pQR2189; assay: HPLC initial rates, Michaelis-Menten fit; assay type: biochemical, uncultured bacterium (household drain metagenome); conditions: apparent, PLP 1 mM, KPi pH 8 50 mM, 20% DMSO, 35 °C
Excerpt: HPLC initial rates, Michaelis-Menten fit on pQR2189

Km ([1]; pyruvate 1 mM): 14.8 ± 3.2 mM
SMILES: C[C@H](N)c1ccccc1 [(S)-7, (S)-α-methylbenzylamine]

Km ([1]; amine donor (S)-7 5 mM): 0.29 ± 0.08 mM
SMILES: CC(=O)C(=O)O [compound 2, pyruvate]

Km ([2]; isopropylamine 200 mM): 18.9 ± 3.1 mM
SMILES: CC(C)(C)OC(=O)N1CCC(=O)C1 [18a, 1-Boc-3-pyrrolidinone]

SMILES: CC(C)N [compound 27, isopropylamine]
Km ([2]; 1-Boc-3-pyrrolidinone 10 mM): 10.6 ± 1.6 mM
